Active and inactive are the calls of the source.
How the values were obtained:
Mus musculus = organism: Mus musculus; assay: Immunostimulatory activity in mouse DN32.D3 NKT hybridoma cells assessed as IL-2 production after 16 hrs by ELISA; assay type: functional
Splenocyte [1] = assay: Immunostimulatory activity in mouse splenocytes assessed as IFNgamma production at 8 ng/ml after 72 hrs by ELISA; assay type: functional, cell-based
Splenocyte [2] = assay: Immunostimulatory activity in mouse splenocytes assessed as IL4 production at 8 ng/ml after 72 hrs by ELISA; assay type: functional, cell-based

Measured: Activity

CCCCCCCCCCCCCCCCCCCCCCCCCC(=O)N[C@@H](CO[C@H]1O[C@H](CO)[C@H](O)[C@H](O)[C@H]1O)[C@H](O)CCCCCCCCCCCCCCC
active: all assays above

CCCCCCCCCCCCCCCCCCCCCCCCCC(=O)N[C@@H](CO[C@H]1O[C@H](CO)[C@H](O)[C@H](O)[C@H]1O)C[C@H](O)CCCCCCCCCCCCCC
active: all assays above

CCCCCCCCCCCCCCCCCCCCCCCCCC(=O)N[C@@H](CO[C@H]1O[C@H](CO)[C@H](O)[C@H](O)[C@H]1O)[C@H](O)[C@H](O)CCCCCCCCCCCCCC
active: all assays above

— ChEMBL document CHEMBL2057065, “The 3-Deoxy Analogue of α-GalCer: Disclosing the Role of the 4-Hydroxyl Group for CD1d-Mediated NKT Cell Activation” (ACS Med Chem Lett, 2011)
